Entries after “also recorded” stand apart in the source; their conditions may differ. Read-outs that look alike come from different tables or passages of the source.
Columns and labels:
[1] = tested on: BrdU-positive cells in the dentate gyrus; test: BrdU labeling of cell proliferation and neurogenesis in the dentate gyrus; assay type: in vivo, mouse; details: for BrdU-labeled cells in the SGZ (cell proliferation): 8-OH-DPAT chronic (28 days, 1 mg/kg/day mini pumps), WT (+/+) mice, vs sham, 1 mg/kg/day; for BrdU-positive cells surviving 28 days after BrdU injection: wild type mice, chronic treatment, sacrificed 28 days after BrdU
[2] = tested on: BrdU-positive cells in the dentate gyrus of 5-HT1A receptor KO mice; test: BrdU labeling of cell proliferation in the dentate gyrus of 5-HT1A knockout mice; details: for BrdU-labeled cells in the SGZ (cell proliferation): 8-OH-DPAT chronic (28 days, 1 mg/kg/day mini pumps), vs sham, 1 mg/kg/day; for BrdU-positive cells surviving 28 days after BrdU injection: 5-HT1A KO mice, chronic treatment, sacrificed 28 days after BrdU
Procedure: Knockout and wild-type 129/SvEv age-matched adult male mice (12-20 weeks) derived from heterozygote crossings (Phillips et al., 1999) were used in all experiments that included 5-HT1A knockout mice. […] Mice were housed 4-5 per cage in a 12-h (06:00-18:00) light-dark colony room at 22° C. with freely available food and water.
To assess the effect of antidepressant or X-irradiation treatments on the number of BrdU-positive cells, mice were administered BrdU (4×75 mg/kg i.p., dissolved in saline, every 2 hr; Roche Diagnostic, Indianapolis, Ind.) and sacrificed 24 hr after the last BrdU injection (FIG. 2A, 3B, 5C-D). To determine cell survival and phenotype after the various antidepressant treatments, fluoxetine, imipramine and vehicle-treated mice were allowed to survive for 28 days after the last BrdU injection (FIG. 2C-D, 3C). After deep anesthesia with a mixture of ketamine/xylazine (100 mg/kg and 7 mg/kg respectively),, mice were transcardially perfused (cold saline for 2 min, followed by 4% cold paraformaldehyde/0.1 M phosphate buffer for 5 min) and brains were collected for immunohistochemistry. All brains were post-fixed overnight in 4% paraformaldehyde at 4° C., then cryoprotected in 30% sucrose and stored at 4° C. Serial sections of the brains were cut (35 μm sections) through the entire hippocampus (plates 41-61; Franklin and Paxinos, 1997) on a cryostat and stored in PBS with 0.1% NaN3. For DAB staining, sections were slide-mounted and boiled in citric acid, pH 6.0, for 5 min, rinsed with PBS, and treated with 0.01% trypsin in Tris/CaC12 for 10 min. Brain sections were incubated for 30 min with 2N HCl and blocked with 5% NGS (Jackson ImmunoResearch, West Grove, Pa.). Sections were then incubated over night at room temperature with anti-mouse BrdU (1:100; Becton-Dickinson). After washing with PBS, sections were incubated for 1 hr with secondary antibody (1:200 biotinylated goat anti-mouse; Sigma-Aldrich, St. Louis, Mo.) followed by amplification with an avidin-biotin complex (Vector Laboratories). The staining was visualized with DAB (Sigma-Aldrich, St. Louis, Mo.). For fluorescent double-labeling, the DNA-denaturation procedure consisted of the following steps: 2 hr incubation in 50% formamide-2×SSC at 65° C., 5 min rinse in 2×SSC, 30 min incubation in 2N HCl at 37° C., and 10 min rinse in 0.1 M boric acid, pH 8.5. Sections were then incubated in TBS-0.1% Triton X-100 (Tx)-5% normal donkey serum (NDS) for 30 min, followed by anti-rat BrdU primary antibody (1:100; Accurate Westbury, N.Y. or Serotec, Oxford, UK) in TBS/NDS/Tx for 24 hrs at 4° C. in combination with either a mouse monoclonal antibody to NeuN (1:500; Chemicon, Temecula, Calif.) or a rabbit polyclonal antibody to GFAP (1:800; DAKO, Carpinteria, Calif.). The fluorescent secondary antibodies used were biotin-conjugated donkey anti-rat (1:200) plus streptavidin Cy2 (1:200), donkey anti-mouse. Cy3 (1:500), or donkey anti-rabbit Cy3 (1:500) (Jackson ImmunoResearch, West Grove, Pa.). Fluorescent images were taken with a Bio-Rad MRC 1000 confocal laser scanning system coupled to a Zeiss Axiovert 100 inverted microscope. For each image acquisition, a Kalman average of five frames was used. For quantification of BrdU/NeuN or BrdU/GFAP double-labeled cells, at least 50 BrdU-positive cells per animal were analyzed using Z-plane sectioning (1 μm steps).
In this set of experiments, wild type and 5-HT1A receptor KO mice were injected with BrdU following 27 days of treatment with fluoxetine, imipramine, or vehicle. To assess the effect of AD treatment on cell proliferation, one group of mice was sacrificed 24 hours after BrdU injection and sections containing the dentate gyrus were analyzed by immunohistochemistry.

129/SvEv mice = test: Novelty-suppressed feeding test (NSF); assay type: in vivo, mouse
Procedure: Haloperidol, an antipsychotic that antagonizes D2 dopamine receptors, was used as a negative control because it is devoid of antidepressant activity in humans. NSF performance was assessed after either 5 or 28 days of oral drug administration.

[3] = tested on: 5-HT1A receptor knockout (KO) mice; test: Novelty-suppressed feeding test (NSF) in 5-HT1A knockout mice; assay type: in vivo, mouse
Procedure: The Novelty-suppressed feeding test was carried out during a 5-min period as previously described (Santarelli et al., 2001). Briefly, the testing apparatus consisted of a plastic box, 50×50×20 cm. The floor was covered with approximately 2 cm of wooden bedding. Twenty-four hours prior to behavioral testing, all food was removed from the home cage. At the time of testing, a single pellet of food (regular chow) was placed on a white paper platform positioned in the center of the box. An animal was placed in a corner of the maze and a stopwatch was immediately started. The measure of interest (chewing) was scored when the mouse was sitting on its haunches and biting with the use of forepaws. Immediately after this test, mice were transferred to their home cage and the amount of food consumed in 5 min was measured (home cage food consumption). In knockout experiments, mice were genotyped after behavioral testing to remove the possibility of investigator bias. Mice were always tested during the light period.
Among the 14 known 5-HT receptor subtypes, the 5-HT1A receptor has been most consistently implicated in the modulation of mood and anxiety-related behaviors (Gross et al., 2000; Sargent et al., 2000). To determine whether this receptor is required to mediate the effects of serotonin- and noradrenaline-enhancing ADs, we compared the effects of these drugs in wild type (WT) mice and in mice lacking the 5-HT1A receptor (5-HT1A receptor knockout (KO) mice). WT and KO mice were treated with fluoxetine, imipramine, desipramine, or vehicle for a period of 28 days before being tested in the NSF paradigm.

[4] = mouse, in vivo, po
Procedure: Fluoxetine (Eli Lilly, Indianapolis, Ind.), Imipramine (Sigma-Aldrich, St. Louis, Mo.), Desipramine (Sigma-Aldrich, St. Louis, Mo.) and Haloperidol (Sigma-Aldrich, St. Louis, Mo.) were dissolved in tap water at a concentration of 80, 160, 160, and 8 mg/L, respectively. These concentration were established based on the average drinking amount and average weight of the mice used in the study to achieve a final dose of 10 (fluoxetine), 20 (imipramine and desipramine) and 1 (haloperidol) mg/kg/day. […] Vehicle animals received tap water. 8-hydroxy-2-(di-n-propylamino) tetralin (8-OH-DPAT, Sigma-Aldrich, St. Louis, Mo.) was dissolved in sterile saline (0.9% NaCl) at a concentration of 4.5 mg/ml, and delivered through Alzet osmotic mini-pumps (model 2004, Alzet, Cupertino, Calif.) implanted subcutaneously 28 days prior to behavioral testing. The final average dose delivered was 1 mg/kg/day. Sham mice were implanted with mini-pumps containing sterile saline.

BALB/c mice = test: Chronic unpredictable stress paradigm (CUS); assay type: in vivo, mouse; details: for state of the coat (fur) in CUS: fluoxetine 10 mg/kg/day i.p. from week 3, end of fifth week; for weight loss induced by stress in CUS / grooming latency in CUS: fluoxetine 10 mg/kg/day i.p.; for weight loss induced by stress in CUS: data not shown; for grooming latency in CUS: sixth week, after sucrose solution
Procedure: The stress regimen used is a variant of the chronic mild stress procedures described by Willner et al. (Willner et al., 1992). Mice were subjected to various and repeated unpredictable stressors for a period of five weeks (Griebel et al., 2002). The different stressors used were: alterations of the bedding (repeated sawdust changing, removal of sawdust, damp sawdust, substitution of sawdust with 37° C. water); cage tilting (45°); predator sounds (15 min.); cage shift (mice were positioned in the empty cage of another male); light to dark or dark to light shifts (four light/dark successions of 30 min every 24 hours); reversal of the light/dark cycle. The fluoxetine treatment (10 mg/kg/day, i.p.) started at the beginning of the third week. The state of the coat was assessed at the end of the stress regimen (end of fifth week). The total score resulted from the sum of the score of seven different body parts: head, neck, dorsal coat, ventral coat, tail, forepaws and the hindpaws. A score of 0 was given for a well-groomed coat and 1 for a spoiled coat (see Griebel, 2002). The grooming latency was assessed at the end of the sixth week. This test consisted in squirting 200 μl of a 10% sucrose solution on the mouse's snout. The latency to start grooming was then recorded.
The CUS protocol consists of the sequential application of a number of stressors, presented in a varied and unpredictable manner during 5 weeks. The continued application of these stressors produces a deterioration in the state of the coat, an impaired grooming response, and weight loss (Griebel et al., 2002; Willner et al., 1992). ADs such as fluoxetine can reverse these stress-induced effects after chronic, but not acute, administration (Griebel et al., 2002; Willner et al., 1992).
Sham and irradiated mice were subjected to five weeks of CUS, beginning two weeks after the final X-ray dose, and half of the animals in each group were administered fluoxetine (10 mg/kg/day, i.p.) from weeks 3-6. The state of each animal's fur was assessed at the end of the stress period, and assigned a score based on observations from several body regions (see methods). Fluoxetine treatment was continued for one more week, after which we measured the latency to begin grooming following application of a sucrose solution to the head of each animal.

[5] = tested on: dentate gyrus (DG) of the rat hippocampus; details: Malberg et al., 2000; cited from earlier work
[6] = 28 days via drinking water, fluoxetine 10, imipramine 20, desipramine 20, haloperidol 1 mg/kg/day, wild-type mice, vs vehicle
[7] = 28 days via drinking water, 5-HT1A knockout (−/−) mice, vs vehicle
[8] = 5-day treatment via drinking water, vs vehicle
[9] = 28 days, X-irradiated mice (3 x 5 Gy to hippocampus), vs vehicle
[10] = 28 days, sham (non-irradiated) mice, vs vehicle

## CCCN(CCC)C1CCc2cccc(O)c2C1 (stereo not drawn) [8-OH-DPAT]
[1]
  BrdU-labeled cells in the SGZ (cell proliferation): caused an increase in cell proliferation
[1]; listed as DPAT
  BrdU-labeled cells in the SGZ (cell proliferation): DPAT-induced increases in BrdU-labeled cells
[2]; 5-HT1A KO (−/−) mice
  BrdU-labeled cells in the SGZ (cell proliferation): not observed
[2]; 5-HT1A KO (−/−) mice, listed as DPAT
  BrdU-labeled cells in the SGZ (cell proliferation): not −/− mice
129/SvEv mice; 28 days, subcutaneous osmotic mini pumps, 1 mg/kg/day, wild type (+/+), vs sham, 1 mg/kg/day
  latency to feed in NSF: significantly decreased the latency to feed; also recorded: significant decrease in the latency to feed
[3]; 28 days, subcutaneous osmotic mini pumps, 1 mg/kg/day, 5-HT1A knockout (−/−), vs sham, 1 mg/kg/day
  latency to feed in NSF: ineffective

## CNCCCN1c2ccccc2CCc2ccccc21 [desipramine, Desipramine]
[4]; 129/SvEv
  time by which steady serum levels had been achieved: ≤ 5 days
129/SvEv mice; [6]
  latency to feed in NSF: significant decreases in the latency to feed; also recorded: significantly decreased the latency to feed
[3]; [7]
  latency to feed in NSF: still responsive; also recorded: effective

## CNCCC(Oc1ccc(C(F)(F)F)cc1)c1ccccc1 (stereo not drawn) [fluoxetine, Fluoxetine]
[4]; 129/SvEv
  time by which steady serum levels had been achieved: ≤ 5 days
[1]; chronic fluoxetine, X-irradiated animals
  cell proliferation (BrdU): no effect
[1]; chronic fluoxetine, non-irradiated mice
  cell proliferation (BrdU) in the SGZ: increased cell proliferation
[1]; chronic fluoxetine, subventricular zone
  cell proliferation (BrdU) in the SVZ: no effect
[1]; fluoxetine 5 days, sacrificed 24 hours after BrdU, vs vehicle
  number of BrdU-positive cells in the DG: No significant effect
[1]; wild type (+/+) mice, 27 days (4 weeks) treatment, sacrificed 24 hours after BrdU, vs vehicle
  increase in BrdU-labeled cells in the dentate gyrus: two-fold increase; also recorded: effective only in +/+ mice
[1]; vs vehicle
  BrdU-positive cells surviving 28 days after BrdU injection: had an effect in WT
[2]; 5-HT1A KO (−/−) mice, 27 days (4 weeks) treatment, sacrificed 24 hours after BrdU, vs vehicle
  increase in BrdU-labeled cells in the dentate gyrus: no effect; also recorded: effective only in +/+ mice
[2]; vs vehicle
  BrdU-positive cells surviving 28 days after BrdU injection: not in KO
129/SvEv mice; [8]
  latency to feed in NSF: no effect
129/SvEv mice; [6]
  latency to feed in NSF: significant decreases in the latency to feed
129/SvEv mice; 28 days via drinking water, fluoxetine 10, imipramine 20, desipramine 20, haloperidol 1 mg/kg/day, wild-type mice, vs vehicle, listed as Fluoxetine
  latency to feed in NSF: significantly decreased the latency to feed
129/SvEv mice; [9]
  latency to feed in NSF: no such anxiolytic-like effect
129/SvEv mice; [10]
  latency to feed in NSF: significant reduction in the latency to feed
BALB/c mice; X-irradiated mice
  state of the coat (fur) in CUS: absent; also recorded: Irradiation prevented the improvement of the state of the coat
  weight loss induced by stress in CUS: irradiation blocked this effect
  grooming latency in CUS: X-irradiation blocked this effect
BALB/c mice; sham mice
  state of the coat (fur) in CUS: significantly improved the state of the fur; also recorded: significant differences between the fluoxetine-treated sham group and all the others
  weight loss induced by stress in CUS: trend to reverse the weight loss
  grooming latency in CUS: decreased; also recorded: decrease in the latency to groom
[5]
  neurogenesis in the dentate gyrus: increase neurogenesis
[3]; [7]
  latency to feed in NSF: insensitive
[3]; 28 days via drinking water, 5-HT1A knockout (−/−) mice, vs vehicle, listed as Fluoxetine
  latency to feed in NSF: only imipramine and desipramine were effective

## O=C(CCCN1CCC(O)(c2ccc(Cl)cc2)CC1)c1ccc(F)cc1 [haloperidol, Haloperidol]
129/SvEv mice; 28 days via drinking water, fluoxetine 10, imipramine 20, desipramine 20, haloperidol 1 mg/kg/day, wild-type mice, vs vehicle, listed as Haloperidol
  latency to feed in NSF: ineffective

## CN(C)CCCN1c2ccccc2CCc2ccccc21 [imipramine, Imipramine]
[4]; 129/SvEv
  time by which steady serum levels had been achieved: ≤ 5 days
[1]; vs vehicle
  BrdU-positive cells surviving 28 days after BrdU injection: effective in both genotypes
[2]; vs vehicle
  BrdU-positive cells surviving 28 days after BrdU injection: effective in both genotypes
129/SvEv mice; [8]
  latency to feed in NSF: no effect
129/SvEv mice; [6]
  latency to feed in NSF: significant decreases in the latency to feed; also recorded: significantly decreased the latency to feed
129/SvEv mice; [9]
  latency to feed in NSF: no such anxiolytic-like effect
129/SvEv mice; [10]
  latency to feed in NSF: significant reduction in the latency to feed
[3]; [7]
  latency to feed in NSF: still responsive; also recorded: effective

## NCCC(Oc1ccc(C(F)(F)F)cc1)c1ccccc1 (stereo not drawn) [nor- fluoxetine]
[4]
  time by which steady serum levels had been achieved: ≤ 5 days
